Data as given in ChEMBL document CHEMBL4417625, “Therapeutic compounds and methods” (2016).
The source made the active and inactive calls. The rule behind the calls is not given here.

How the values were obtained:
[1] = target: T1, Regulator of G-protein signaling 17 (Homo sapiens) (UniProt Q9UGC6); assay: Inhibition of cell membrane translocation of N-terminal GFP tagged and N-terminal deficient RGS17 (unknown origin) expressed in HEK293T cells co-expressing Galpha-o assessed as induction of delocalization of RGS17deltaN to cytoplasm at 100 uM incubated for 10 mins by confocal microscopy; assay type: cell-based
T1 sequence (whole entry): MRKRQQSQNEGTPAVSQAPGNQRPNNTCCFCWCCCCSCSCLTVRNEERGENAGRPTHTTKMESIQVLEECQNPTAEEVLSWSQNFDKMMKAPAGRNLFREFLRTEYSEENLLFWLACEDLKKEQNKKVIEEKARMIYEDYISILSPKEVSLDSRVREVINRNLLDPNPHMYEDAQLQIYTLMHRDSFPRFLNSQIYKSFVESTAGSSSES

[2] = target: T1, Regulator of G-protein signaling 17 (Homo sapiens); assay: Covalent binding affinity to N-terminal deficient RGS17 (unknown origin) assessed as covalent protein-compound adduct formation at 50 uM incubated for 1 hr by MALDI-TOF mass spectrometry
[3] = target: T1, Regulator of G-protein signaling 17 (Homo sapiens); assay: Inhibition of cell membrane translocation of N-terminal GFP tagged and N-terminal deficient RGS17 (unknown origin) expressed in HEK293T cells co-expressing Galpha-o assessed as induction of delocalization of RGS17deltaN to cytoplasm at 10 uM incubated for 10 mins by confocal microscopy; assay type: cell-based
[4] = target: T1, Regulator of G-protein signaling 17 (Homo sapiens); assay: Inhibition of RGS17 (unknown origin) assessed as reduction in RGS17 interaction with 6x-his-tagged biotinylated Galpha-o interaction at 100 uM by Alpha-screen assay
[5] = target: T1, Regulator of G-protein signaling 17 (Homo sapiens); assay: Inhibition of RGS17 (unknown origin) assessed as reduction in RGS17 interaction with 6x-his-tagged biotinylated Galpha-o interaction at 100 uM followed by 3 times drug wash out with ASB buffer by Alpha-screen assay
[6] = target: T1, Regulator of G-protein signaling 17 (Homo sapiens); assay: Inhibition of RGS17 (unknown origin) assessed as reduction in RGS17 interaction with 6x-his-tagged biotinylated Galpha-o interaction by Alpha-screen assay
[7] = target: T1, Regulator of G-protein signaling 17 (Homo sapiens); assay: Binding affinity to RGS17 (unknown origin) assessed as shifting of protein melting temperature by Sypro-orange dye based differential scanning fluorimetry
HEK-293T = assay: Cytotoxicity in HEK293T cells co-expressing Galpha-o at 100 uM incubated for 10 mins; assay type: cell-based; conditions: human
[8] = target: Guanine nucleotide-binding protein G(o) subunit alpha (Homo sapiens) (UniProt P09471); assay: Binding affinity to Galpha-o (unknown origin) assessed as shifting of protein melting temperature by Sypro-orange dye based differential scanning fluorimetry
[9] = target: T1, Regulator of G-protein signaling 17 (Homo sapiens); assay: Inhibition of cell membrane translocation of N-terminal GFP tagged full length RGS17 (unknown origin) expressed in HEK293T cells co-expressing Galpha-o at 100 uM incubated for 10 mins by confocal microscopy; assay type: cell-based

Chain of Guanine nucleotide-binding protein G(o) subunit alpha (Homo sapiens) (P09471 2-354 limits assumed): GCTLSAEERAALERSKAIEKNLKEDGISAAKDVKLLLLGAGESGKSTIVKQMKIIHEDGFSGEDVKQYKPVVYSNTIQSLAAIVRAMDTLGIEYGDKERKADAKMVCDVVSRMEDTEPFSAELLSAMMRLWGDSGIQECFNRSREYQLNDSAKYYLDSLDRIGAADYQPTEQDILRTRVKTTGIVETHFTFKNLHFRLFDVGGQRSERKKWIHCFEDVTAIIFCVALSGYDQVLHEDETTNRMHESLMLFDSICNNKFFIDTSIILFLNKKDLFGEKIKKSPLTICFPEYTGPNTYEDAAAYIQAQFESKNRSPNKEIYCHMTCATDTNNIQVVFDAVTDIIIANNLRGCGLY

Row | Structure (SMILES) | inhibition [1] | Activity [2] | inhibition [3] | inhibition [4] | inhibition [5] | inhibition [6] | ΔTm [7] | Activity (HEK-293T) | Activity [8] | Activity [7] | inhibition [9]
1 | CC1=C(O)C(=O)C=C2C1=CC=C1[C@@]2(C)CC[C@@]2(C)[C@@H]3C[C@](C)(C(=O)O)CC[C@]3(C)CC[C@]12C | Active | inactive | Active | inactive | Active | Dose-dependent effect | 1.4 °C |  |  |  | 
2 | CC(C)=CCC[C@]1(C)C=Cc2c(O)c3c(c(CC=C(C)C)c2O1)O[C@]12C(=C[C@@H]4C[C@H]1C(C)(C)O[C@@]2(C/C=C(/C)C(=O)O)C4=O)C3=O [GAMBOGIC ACID] | inactive | inactive |  | inactive | Active | Dose-dependent effect |  | Toxic | Active | Active | 
3 | O=c1c(-c2cc(O)c(O)c(O)c2)coc2cc(O)c(O)c(O)c12 | Active | inactive | Active | inactive | Active | Dose-dependent effect | 1 °C |  |  |  | 
4 | C[n+]1cc2c3c(ccc2c2ccc4cc5c(cc4c21)OCO5)OCO3 | Active | inactive | Active | inactive | Active | Dose-dependent effect | 2.1 °C |  |  |  | inactive
5 | Cc1ccc(-n2sc(=O)n(Cc3ccc(F)cc3)c2=O)cc1 | inactive |  |  |  |  |  |  |  |  |  | 
